Measurements from patent publication US9708314B2, “Heterocyclic amide compound” (NISSAN CHEMICAL INDUSTRIES, LTD., priority 2013, dated 2017).

Columns and labels:
Type in all cases: in vivo
[1] = tested on: Echinochloa oryzacola Vasing.; assay: Test Example 2: herbicidal activity, application during weed generation in submerged conditions; details: Eighteenth Table; application herbicide amount 320 g/ha
Source text: (§1) 5 Herbicidal ratio of 90% or more (almost completely withered) 4 Herbicidal ratio of 70% or more and less than 90% 3 Herbicidal ratio of 40% or more and less than 70% 2 Herbicidal ratio of 20% or more and less than 40% 1 Herbicidal ratio of 5% or more and less than 20% 0 Herbicidal ratio of 5% or less (almost no effect) [Test Example 2] Herbicidal Activity Test by Application During Weed Generation in Submerged Conditions After alluvial soil was placed into 1/10000 are of Wagner pot, water was poured and mixed to form a submerged condition having a water depth of 4 cm. Seeds of Echinochloa oryzacola Vasing., Scirpus juncoides, and Monochoria vaginalis were sowed in a mixed manner in the above pot and the pot was placed in the greenhouse of 25° C. to 30° C. to grow the plants. When Echinochloa oryzacola Vasing., Scirpus juncoides, and Monochoria vaginalis were grown to one leaf stage to two leaf stage, the emulsion agent containing the compound of the present invention prepared in accordance with Formulation Example 2 was diluted with water so as to be a predetermined herbicide amount and the diluted compound was applied to the surface of the water. Three weeks after the herbicide application, effects on each plant were investigated in accordance with the criteria of Test Example 1. A: Echinochloa oryzicola Vasing., B: Scirpus juncoides, C: Monochoria vaginalis, D: Leptochloa chinensis, E: Cyperus difformis, F: Digitaria ciliaris, G: Setaria viridis, H: Echinochloa crus-galli var. crus-galli, I: Avena fatua, J: Alopecurus myosuroides, K: Lolium multiflorum Lam., L: Apera spica-venti., M: Abutilon theophrasti, N: Amaranthus retroflexus, O: Chenopodium album, P: Stellaria media, Q: Galium spurium, R: Veronica persica, a: transplanted Oryza sativa, b: directly sowed Oryza sativa, c: Zea mays, d: Glycine max, e: Triticum aestivum, f: Beta vulgaris ssp. vulgaris, and g: Brassica campestris L. The application herbicide amount (g/ha) means an amount that a concentration is adjusted so that, when an application amount is converted into per hectare (1 ha), the herbicide is applied by the number of grams (g) of the described value.

Monochoria vaginalis [2] = assay: as above; details: Eighteenth Table; application herbicide amount 320 g/ha
Source text: as §1

Scirpus juncoides [3] = assay: as above; details: Eighteenth Table; application herbicide amount 320 g/ha
Source text: as §1

Chenopodium album = assay: Test Example 4: herbicidal effect by application to foliage (diluvial soil, plastic box); details: application to foliage, application herbicide amount 320 g/ha
Method in brief: (§2)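 Plants were grown in sterilized diluvial soil in a greenhouse at 25-30° C for 14 days, then sprayed on stems and leaves with water-diluted emulsion formulation at set rates in g/ha. Weed control and crop injury were scored 3 weeks after treatment on a 0-5 herbicidal-ratio scale, from 0 (≤5%) to 5 (≥90%).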

[4] = tested on: Echinochloa crus-galli var. crus-galli; assay: as above; details: application to foliage, application herbicide amount 320 g/ha
Method in brief: as §2

[5] = tested on: Echinochloa oryzacola Vasing.; assay: Test Example 1: herbicidal activity, application before weed generation in submerged conditions; details: Application herbicide amount 320 g/ha; Seventeenth Table
Source text: (§3) [Test Example 1] Herbicidal Activity Test by Application Before Weed Generation in Submerged Conditions After alluvial soil was placed into 1/10000 are of Wagner pot, water was poured and mixed to form a submerged condition having a water depth of 4 cm. Seeds of Echinochloa oryzacola Vasing., Scirpus juncoides, and Monochoria vaginalis were sowed in a mixed manner in the above pot and thereafter 2.5 leaf stage Oryza sativa seedling was transplanted. On the day of sowing seeds, the emulsion agent containing the compound of the present invention prepared in accordance with Formulation Example 2 was diluted with water so as to be a predetermined herbicide amount and the diluted compound was applied to the surface of the water. The pot was placed in a greenhouse of 25° C. to 30° C. to grow plant. Three weeks after the herbicide application, effects on each plant were investigated in accordance with the following criteria. Criteria 5 Herbicidal ratio of 90% or more (almost completely withered) 4 Herbicidal ratio of 70% or more and less than 90% 3 Herbicidal ratio of 40% or more and less than 70% 2 Herbicidal ratio of 20% or more and less than 40% 1 Herbicidal ratio of 5% or more and less than 20% 0 Herbicidal ratio of 5% or less (almost no effect) A: Echinochloa oryzicola Vasing., B: Scirpus juncoides, C: Monochoria vaginalis, D: Leptochloa chinensis, E: Cyperus difformis, F: Digitaria ciliaris, G: Setaria viridis, H: Echinochloa crus-galli var. crus-galli, I: Avena fatua, J: Alopecurus myosuroides, K: Lolium multiflorum Lam., L: Apera spica-venti., M: Abutilon theophrasti, N: Amaranthus retroflexus, O: Chenopodium album, P: Stellaria media, Q: Galium spurium, R: Veronica persica, a: transplanted Oryza sativa, b: directly sowed Oryza sativa, c: Zea mays, d: Glycine max, e: Triticum aestivum, f: Beta vulgaris ssp. vulgaris, and g: Brassica campestris L. The application herbicide amount (g/ha) means an amount that a concentration is adjusted so that, when an application amount is converted into per hectare (1 ha), the herbicide is applied by the number of grams (g) of the described value.

Monochoria vaginalis [6] = assay: as above; details: Application herbicide amount 320 g/ha; Seventeenth Table
Source text: as §3

Scirpus juncoides [7] = assay: as above; details: Application herbicide amount 320 g/ha; Seventeenth Table
Source text: as §3

Triticum aestivum = assay: Test Example 4: effect on crop by application to foliage (diluvial soil, plastic box); details: application to foliage, application herbicide amount 320 g/ha
Method in brief: as §2

With `Cc1nnc(NC(=O)c2ccc(C(F)(F)F)n3cnnc23)o1` [1-001] the “A (Echinochloa oryzicola Vasing.) herbicidal ratio grade” value [1] was 4 (Herbicidal ratio of 70% or more and less than 90%), the “C (Monochoria vaginalis) herbicidal ratio grade” value (Monochoria vaginalis [2]) was 2 (Herbicidal ratio of 20% or more and less than 40%) and the “B (Scirpus juncoides) herbicidal ratio grade” value (Scirpus juncoides [3]) was 4 (Herbicidal ratio of 70% or more and less than 90%). For the same compound, the “O (Chenopodium album) herbicidal effect” value (Chenopodium album) was 5 (Herbicidal ratio of 90% or more (almost completely withered)), the “H (Echinochloa crus-galli var. crus-galli) herbicidal effect” value [4] was 4 (Herbicidal ratio of 70% or more and less than 90%) and the “A: Echinochloa oryzicola Vasing. (herbicidal effect grade)” value [5] was 3 (Herbicidal ratio of 40% or more and less than 70%). For the same compound, the “C: Monochoria vaginalis (herbicidal effect grade)” value (shortened to “C: Monochoria vaginalis”) (Monochoria vaginalis [6]) was 2 (Herbicidal ratio of 20% or more and less than 40%), the “B: Scirpus juncoides (herbicidal effect grade)” value (“B: Scirpus juncoides” below) (Scirpus juncoides [7]) was 2 (Herbicidal ratio of 20% or more and less than 40%) and the “e (Triticum aestivum) effect on crop” value (Triticum aestivum) was 1 (Herbicidal ratio of 5% or more and less than 20%).

`Cc1nnc(NC(=O)c2ccc(C(F)(F)F)n3c(C)nnc23)o1` [1-002] was tested, and the “A (Echinochloa oryzicola Vasing.) herbicidal ratio grade” value [1] was 3 (Herbicidal ratio of 40% or more and less than 70%), the “C (Monochoria vaginalis) herbicidal ratio grade” value (Monochoria vaginalis [2]) was 0 (Herbicidal ratio of 5% or less (almost no effect)) and the “B (Scirpus juncoides) herbicidal ratio grade” value (Scirpus juncoides [3]) was 0 (Herbicidal ratio of 5% or less (almost no effect)). For the same compound, the “O (Chenopodium album) herbicidal effect” value (Chenopodium album) was 5 (Herbicidal ratio of 90% or more (almost completely withered)), the “H (Echinochloa crus-galli var. crus-galli) herbicidal effect” value [4] was 5 (Herbicidal ratio of 90% or more (almost completely withered)) and the “A: Echinochloa oryzicola Vasing. (herbicidal effect grade)” value [5] was 2 (Herbicidal ratio of 20% or more and less than 40%). The “C: Monochoria vaginalis” value (Monochoria vaginalis [6]) was 0 (Herbicidal ratio of 5% or less (almost no effect)), the “B: Scirpus juncoides” value (Scirpus juncoides [7]) was 1 (Herbicidal ratio of 5% or more and less than 20%) and the “e (Triticum aestivum) effect on crop” value (Triticum aestivum) was 1 (Herbicidal ratio of 5% or more and less than 20%).

For `Cc1nnc(NC(=O)c2ccc(C(F)(F)F)n3c(C(C)C)nnc23)o1` [1-004, 3-Isopropyl-N-(5-methyl-1,3,4-oxadiazol-2-yl)-5-(trifluoromethyl)-[1,2,4]triazolo[4,3-a]pyridine-8-carboxamide], the “A (Echinochloa oryzicola Vasing.) herbicidal ratio grade” value [1] was 4 (Herbicidal ratio of 70% or more and less than 90%), the “C (Monochoria vaginalis) herbicidal ratio grade” value (Monochoria vaginalis [2]) was 4 (Herbicidal ratio of 70% or more and less than 90%) and the “B (Scirpus juncoides) herbicidal ratio grade” value (Scirpus juncoides [3]) was 3 (Herbicidal ratio of 40% or more and less than 70%). For the same compound, the “O (Chenopodium album) herbicidal effect” value (Chenopodium album) was 5 (Herbicidal ratio of 90% or more (almost completely withered)), the “H (Echinochloa crus-galli var. crus-galli) herbicidal effect” value [4] was 5 (Herbicidal ratio of 90% or more (almost completely withered)) and the “A: Echinochloa oryzicola Vasing. (herbicidal effect grade)” value [5] was 5 (Herbicidal ratio of 90% or more (almost completely withered)). The “C: Monochoria vaginalis” value (Monochoria vaginalis [6]) was 4 (Herbicidal ratio of 70% or more and less than 90%), the “B: Scirpus juncoides” value (Scirpus juncoides [7]) was 4 (Herbicidal ratio of 70% or more and less than 90%) and the “e (Triticum aestivum) effect on crop” value (Triticum aestivum) was 2 (Herbicidal ratio of 20% or more and less than 40%).

In the case of `CCc1nnc(NC(=O)c2ccc(C(F)(F)F)n3c(C(C)C)nnc23)o1` [1-005], the “A (Echinochloa oryzicola Vasing.) herbicidal ratio grade” value [1] is reported as 5 (Herbicidal ratio of 90% or more (almost completely withered)), the “C (Monochoria vaginalis) herbicidal ratio grade” value (Monochoria vaginalis [2]) is reported as 0 (Herbicidal ratio of 5% or less (almost no effect)) and the “B (Scirpus juncoides) herbicidal ratio grade” value (Scirpus juncoides [3]) is reported as 1 (Herbicidal ratio of 5% or more and less than 20%). The “O (Chenopodium album) herbicidal effect” value (Chenopodium album) was 5 (Herbicidal ratio of 90% or more (almost completely withered)), the “H (Echinochloa crus-galli var. crus-galli) herbicidal effect” value [4] was 4 (Herbicidal ratio of 70% or more and less than 90%) and the “A: Echinochloa oryzicola Vasing. (herbicidal effect grade)” value [5] was 5 (Herbicidal ratio of 90% or more (almost completely withered)). For the same compound, the “C: Monochoria vaginalis” value (Monochoria vaginalis [6]) was 4 (Herbicidal ratio of 70% or more and less than 90%), the “B: Scirpus juncoides” value (Scirpus juncoides [7]) was 4 (Herbicidal ratio of 70% or more and less than 90%) and the “e (Triticum aestivum) effect on crop” value (Triticum aestivum) was 0 (Herbicidal ratio of 5% or less (almost no effect)).

In the case of `Cc1nnc(NC(=O)c2ccc(C(F)(F)F)n3c(C4CC4)nnc23)o1` [1-010], the “A (Echinochloa oryzicola Vasing.) herbicidal ratio grade” value [1] is reported as 4 (Herbicidal ratio of 70% or more and less than 90%), the “C (Monochoria vaginalis) herbicidal ratio grade” value (Monochoria vaginalis [2]) is reported as 4 (Herbicidal ratio of 70% or more and less than 90%) and the “B (Scirpus juncoides) herbicidal ratio grade” value (Scirpus juncoides [3]) is reported as 1 (Herbicidal ratio of 5% or more and less than 20%). The “O (Chenopodium album) herbicidal effect” value (Chenopodium album) was 5 (Herbicidal ratio of 90% or more (almost completely withered)), the “H (Echinochloa crus-galli var. crus-galli) herbicidal effect” value [4] was 4 (Herbicidal ratio of 70% or more and less than 90%) and the “A: Echinochloa oryzicola Vasing. (herbicidal effect grade)” value [5] was 5 (Herbicidal ratio of 90% or more (almost completely withered)). The “B: Scirpus juncoides” value (Scirpus juncoides [7]) was 3 (Herbicidal ratio of 40% or more and less than 70%) and the “e (Triticum aestivum) effect on crop” value (Triticum aestivum) was 1 (Herbicidal ratio of 5% or more and less than 20%).

`CCC(CC)c1nnc2c(C(=O)Nc3nnc(C)o3)ccc(C(F)(F)F)n12` [1-011] was tested, and the “A (Echinochloa oryzicola Vasing.) herbicidal ratio grade” value [1] was 5 (Herbicidal ratio of 90% or more (almost completely withered)), the “C (Monochoria vaginalis) herbicidal ratio grade” value (Monochoria vaginalis [2]) was 3 (Herbicidal ratio of 40% or more and less than 70%) and the “B (Scirpus juncoides) herbicidal ratio grade” value (Scirpus juncoides [3]) was 3 (Herbicidal ratio of 40% or more and less than 70%). The “O (Chenopodium album) herbicidal effect” value (Chenopodium album) was 5 (Herbicidal ratio of 90% or more (almost completely withered)), the “H (Echinochloa crus-galli var. crus-galli) herbicidal effect” value [4] was 5 (Herbicidal ratio of 90% or more (almost completely withered)) and the “A: Echinochloa oryzicola Vasing. (herbicidal effect grade)” value [5] was 5 (Herbicidal ratio of 90% or more (almost completely withered)). The “C: Monochoria vaginalis” value (Monochoria vaginalis [6]) was 5 (Herbicidal ratio of 90% or more (almost completely withered)), the “B: Scirpus juncoides” value (Scirpus juncoides [7]) was 4 (Herbicidal ratio of 70% or more and less than 90%) and the “e (Triticum aestivum) effect on crop” value (Triticum aestivum) was 0 (Herbicidal ratio of 5% or less (almost no effect)).

With `Cc1nnc(NC(=O)c2ccc(C(F)(F)F)n3c(-c4ccccc4)nnc23)o1` [1-012] the “A (Echinochloa oryzicola Vasing.) herbicidal ratio grade” value [1] was 2 (Herbicidal ratio of 20% or more and less than 40%), the “C (Monochoria vaginalis) herbicidal ratio grade” value (Monochoria vaginalis [2]) was 2 (Herbicidal ratio of 20% or more and less than 40%) and the “B (Scirpus juncoides) herbicidal ratio grade” value (Scirpus juncoides [3]) was 2 (Herbicidal ratio of 20% or more and less than 40%). The “O (Chenopodium album) herbicidal effect” value (Chenopodium album) was 5 (Herbicidal ratio of 90% or more (almost completely withered)), the “H (Echinochloa crus-galli var. crus-galli) herbicidal effect” value [4] was 4 (Herbicidal ratio of 70% or more and less than 90%) and the “A: Echinochloa oryzicola Vasing. (herbicidal effect grade)” value [5] was 5 (Herbicidal ratio of 90% or more (almost completely withered)). For the same compound, the “C: Monochoria vaginalis” value (Monochoria vaginalis [6]) was 4 (Herbicidal ratio of 70% or more and less than 90%), the “B: Scirpus juncoides” value (Scirpus juncoides [7]) was 3 (Herbicidal ratio of 40% or more and less than 70%) and the “e (Triticum aestivum) effect on crop” value (Triticum aestivum) was 0 (Herbicidal ratio of 5% or less (almost no effect)).
